In patent US20240279202A1 (NURIX THERAPEUTICS, INC., priority 2021, published 2024) one finds DC50 and Dmax data, which are given here for 15 molecules.

The experiment deals with T1, ITK (Homo sapiens, UniProt Q08881).
T1 sequence (Q08881 1-620): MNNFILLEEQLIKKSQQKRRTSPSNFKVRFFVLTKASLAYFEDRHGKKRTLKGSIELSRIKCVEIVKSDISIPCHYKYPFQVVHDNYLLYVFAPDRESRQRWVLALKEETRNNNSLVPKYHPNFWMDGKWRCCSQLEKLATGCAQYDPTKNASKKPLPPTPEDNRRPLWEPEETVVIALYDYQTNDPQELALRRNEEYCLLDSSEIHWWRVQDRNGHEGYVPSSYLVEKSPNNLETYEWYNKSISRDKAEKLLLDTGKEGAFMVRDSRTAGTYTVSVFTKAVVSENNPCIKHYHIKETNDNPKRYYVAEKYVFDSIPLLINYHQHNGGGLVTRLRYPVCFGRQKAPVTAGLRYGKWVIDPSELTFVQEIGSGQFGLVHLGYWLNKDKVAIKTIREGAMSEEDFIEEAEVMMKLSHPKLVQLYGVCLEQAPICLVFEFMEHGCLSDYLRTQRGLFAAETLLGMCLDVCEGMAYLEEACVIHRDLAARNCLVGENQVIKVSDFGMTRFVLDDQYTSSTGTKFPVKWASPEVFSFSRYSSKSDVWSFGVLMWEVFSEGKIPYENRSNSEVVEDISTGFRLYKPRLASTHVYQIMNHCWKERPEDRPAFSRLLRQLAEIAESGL
In words: ITK degradation HiBiT assay. The arrangement: expressed in transfected cells; host or cells: Molt4 (ATCC CRL-1552), monoclonal clone 1C10, engineered to carry the HiBiT tag. The class given is cell-based. The note with it: 4 hrs; for DC50: C-terminal HiBiT-tagged Molt4 cells; for Dmax: MOLT-4, C-terminal HiBiT-tagged Molt4 cells. As to the method: Itk Degradation Hibit Assay
Compounds provided herein were assayed in vitro with ITK HiBit cell lines. Compound dilution series (11-point, 5 fold dilutions in DMSO, columns 2-12 with replicate in rows A/B, C/D, E/F, G,H at 2000× the final required concentrations were prepared in 96 well plates (Falcon, cat. no. 353077). Column 1, rows A-H were control DMSO. The 2000× solutions ranged from 2 mM to 1.024 nM (final assay concentration range 1 μM to […]). The 2000× solutions were added to cells in […], for a final DMSO concentration of 0.5% and final assay compound concentration of 1×. For the cells, C-terminal HiBiT-tagged Molt4 cells (ATCC CRL-1552, monoclonal cell line clone 1C10) were plated at 1×10^6 cells/mL, 100 μL/well ([…]) in complete RPMI (10% FBS, 1% L-glutamine). The cells were incubated with compound 10 and compound 17 for 4 hrs at […]/6% CO2.
Following incubation, 100 μL of complete Nano-Glo HiBiT Lytic Detection Reagent (Nano-Glo HiBiT Lytic Buffer with 1:50 Nano-Glo HiBiT Lytic Substrate and 1:100 LgBiT Protein; Promega cat. no. N3040) was added. Cells were further incubated for 10 min at room temperature (RT). Luminescence units (LU) were read on an EnVision plate reader (Perkin Elmer, 0.1 sec per well). Percent ITK remaining per sample was calculated as follows: […]
Using Graphpad Prism, % ITK remaining values were plotted as a function of compound concentration. To determine DC50 and Dmax values, resulting curves were fit to the Prism curve-fitting equation “log(inhibitor) vs response—Variable slope (four parameters)” (reported best fit value IC50 used as DC50). ITK was measured with antibody-based MSD (Meso-Scale Discovery) assays shown below.
In general terms: HiBiT is a short tag that completes a luciferase, so light tracks the accessible tagged protein.

In general, DC50 refers to the concentration giving 50% degradation. Higher therefore signals degradation only at high concentration. In turn, `CC1(C)CCc2c(-c3cc4ccc(C(=O)N5CCC(CC6CCN(c7ccc(C8CCC(=O)NC8=O)cn7)CC6)CC5)cc4[nH]3)n[nH]c2C1` (centres unmarked) [Compound 54, 3-(6-(4-((1-(2-(6,6-dimethyl-4,5,6,7-tetrahydro-1H-indazol-3-yl)-1H-indole-6-carbonyl)piperidin-4-yl)methyl)piperidin-1-yl)pyridin-3-yl)piperidine-2,6-dione] yielded a DC50 of 11 nM.
As to `C[C@@]12Cc3[nH]nc(C(=O)Nc4cnn(C5CN(C(=O)C6CN(c7ccc(C8CCC(=O)NC8=O)cn7)C6)C5)c4)c3C[C@@H]1C2(F)F` (stereo partly drawn) [Compound 55, (4aS,5aR)-N-(1-(1-(1-(5-(2,6-dioxopiperidin-3-yl)pyridin-2-yl)azetidine-3-carbonyl)azetidin-3-yl)-1H-pyrazol-4-yl)-5,5-difluoro-5a-methyl-1,4,4a,5,5a,6-hexahydrocyclopropa[f]indazole-3-carboxamide], the DC50 turned out to be 1.8 nM. Compared with the last molecule, the DC50 is about 6.1-fold lower.
In general, Dmax refers to the largest share of the target that was removed. The low end stands for a partial loss of target, the high end for a fuller loss of target. Regarding `Cn1c(=O)n(C2CCC(=O)NC2=O)c2cccc(N3CCC(C(=O)N4CC(n5cc(NC(=O)c6n[nH]c7c6C[C@@H]6C(F)(F)[C@]6(C)C7)cn5)C4)CC3)c21` (stereo partly drawn) [Compound 56, (4aS,5aR)-N-(1-(1-(1-(1-(2,6-dioxopiperidin-3-yl)-3-methyl-2-oxo-2,3-dihydro-1H-benzo[d]imidazol-4-yl)piperidine-4-carbonyl)azetidin-3-yl)-1H-pyrazol-4-yl)-5,5-difluoro-5a-methyl-1,4,4a,5,5a,6-hexahydrocyclopropa[f]indazole-3-carboxamide], half-maximal degradation (DC50) was put at 0.013 nM and the Dmax turned out to be 64%.
In turn, `Cn1c(=O)n(C2CCC(=O)NC2=O)c2cccc(N3CCC(CN4CC(n5cc(NC(=O)c6n[nH]c7c6C[C@@H]6C(F)(F)[C@]6(C)C7)cn5)C4)CC3)c21` (stereo partly drawn) [Compound 57, (4aS,5aR)-N-(1-(1-((1-(1-(2,6-dioxopiperidin-3-yl)-3-methyl-2-oxo-2,3-dihydro-1H-benzo[d]imidazol-4-yl)piperidin-4-yl)methyl)azetidin-3-yl)-1H-pyrazol-4-yl)-5,5-difluoro-5a-methyl-1,4,4a,5,5a,6-hexahydrocyclopropa[f]indazole-3-carboxamide] yielded a DC50 of under 0.01 nM and a Dmax of 90%.
Molecule `CC1(C)CCc2c(-c3cc4ccc(C(=O)N5CCC(CN6CCN(c7ccc(C8CCC(=O)NC8=O)cn7)CC6)CC5)cc4[nH]3)n[nH]c2C1` (centres unmarked) [Compound 59, 3-(6-(4-((1-(2-(6,6-dimethyl-4,5,6,7-tetrahydro-1H-indazol-3-yl)-1H-indole-6-carbonyl)piperidin-4-yl)methyl)piperazin-1-yl)pyridin-3-yl)piperidine-2,6-dione] gave a 50% degradation concentration (DC50) of 0.05 nM and a Dmax of 81%.
`CN(c1ccc(C2CCC(=O)NC2=O)cn1)C1CCN(CC2CCN(C(=O)c3ccc4cc(-c5n[nH]c6c5CCC(C)(C)C6)[nH]c4c3)CC2)CC1` (centres unmarked) [Compound 62, 3-(6-((1-((1-(2-(6,6-dimethyl-4,5,6,7-tetrahydro-1H-indazol-3-yl)-1H-indole-6-carbonyl)piperidin-4-yl)methyl)piperidin-4-yl)(methyl)amino)pyridin-3-yl)piperidine-2,6-dione]: the DC50 worked out at 0.002 nM and the Dmax came out at 72%.
The corresponding values for `CN(CC1CCN(C(=O)c2ccc3cc(-c4n[nH]c5c4CCC(C)(C)C5)[nH]c3c2)CC1)C1CCN(c2ccc(C3CCC(=O)NC3=O)cn2)CC1` (centres unmarked) [Compound 63, 3-(6-(4-(((1-(2-(6,6-dimethyl-4,5,6,7-tetrahydro-1H-indazol-3-yl)-1H-indole-6-carbonyl)piperidin-4-yl)methyl)(methyl)amino)piperidin-1-yl)pyridin-3-yl)piperidine-2,6-dione] are 0.003 nM and 80%.
`CN(C(=O)CCC1CCN(c2ccc(C3CCC(=O)NC3=O)cn2)C1)c1ccc2cc(-c3n[nH]c4c3C[C@@H]3C(F)(F)[C@]3(C)C4)[nH]c2c1` (stereo partly drawn) [Compound 70, N-(2-((4aS,5aR)-5,5-difluoro-5a-methyl-1,4,4a,5,5a,6-hexahydrocyclopropa[f]indazol-3-yl)-1H-indol-6-yl)-3-(1-(5-(2,6-dioxopiperidin-3-yl)pyridin-2-yl)pyrrolidin-3-yl)-N-methylpropanamide]: the Dmax was 53%.
`CN(C(=O)CN1CC2(CCN(c3ccc4c(c3)C(=O)N(C3CCC(=O)NC3=O)C4=O)C2)C1)c1ccc2cc(-c3n[nH]c4c3C[C@@H]3C(F)(F)[C@]3(C)C4)[nH]c2c1` (some centres unmarked) [Compound 71] yielded a DC50 of 5.2 nM and a Dmax of 70%.
Regarding `CN(C(=O)C1CCN(CC2CCN(c3ccc(C4CCC(=O)NC4=O)cn3)CC2)CC1)c1ccc2cc(-c3n[nH]c4c3C[C@@H]3C(F)(F)[C@]3(C)C4)[nH]c2c1` (stereo partly drawn) [Compound 74, N-(2-((4aS,5aR)-5,5-difluoro-5a-methyl-1,4,4a,5,5a,6-hexahydrocyclopropa[f]indazol-3-yl)-1H-indol-6-yl)-1-((1-(5-(2,6-dioxopiperidin-3-yl)pyridin-2-yl)piperidin-4-yl)methyl)-N-methylpiperidine-4-carboxamide], the DC50 came to 10.5 nM. This counts as double-digit nanomolar.
`C[C@@]12Cc3[nH]nc(C(=O)Nc4cnn(C5CN(CC6CCN(c7ccc(C8CCC(=O)NC8=O)cc7)CC6)C5)c4)c3C[C@@H]1C2(F)F` (stereo partly drawn) [Compound 91, (4aS,5aR)-N-(1-(1-((1-(4-(2,6-dioxopiperidin-3-yl)phenyl)piperidin-4-yl)methyl)azetidin-3-yl)-1H-pyrazol-4-yl)-5,5-difluoro-5a-methyl-1,4,4a,5,5a,6-hexahydrocyclopropa[f]indazole-3-carboxamide]: half-maximal degradation (DC50) was put at 0.24 nM and the Dmax worked out at 85%.
`C[C@@]12Cc3[nH]nc(C(=O)Nc4cnn(C5CCN(CC6CCN(c7ccc(C8CCC(=O)NC8=O)cc7)CC6)CC5)c4)c3C[C@@H]1C2(F)F` (stereo partly drawn) [Compound 92, (4aS,5aR)-N-(1-(1-((1-(4-(2,6-dioxopiperidin-3-yl)phenyl)piperidin-4-yl)methyl)piperidin-4-yl)-1H-pyrazol-4-yl)-5,5-difluoro-5a-methyl-1,4,4a,5,5a,6-hexahydrocyclopropa[f]indazole-3-carboxamide] registered a DC50 of under 0.01 nM and a Dmax of 89%.
Take `C[C@@]12Cc3[nH]nc(C(=O)Nc4cnn([C@H]5CCN(CC6CCN(c7ccc(C(=O)N[C@H]8CCC(=O)NC8=O)nc7)CC6)C[C@@H]5F)c4)c3C[C@@H]1C2(F)F` [Compound 93, (4aS,5aR)-N-(1-((3S,4S)-1-((1-(6-(((S)-2,6-dioxopiperidin-3-yl)carbamoyl)pyridin-3-yl)piperidin-4-yl)methyl)-3-fluoropiperidin-4-yl)-1H-pyrazol-4-yl)-5,5-difluoro-5a-methyl-1,4,4a,5,5a,6-hexahydrocyclopropa[f]indazole-3-carboxamide]: it took 1.9 nM to reach half-maximal degradation (DC50) and the Dmax worked out at 97%.
`C[C@@]12Cc3[nH]nc(C(=O)Nc4cnn([C@@H]5CCN(CC6CCN(c7ccc(C(=O)N[C@H]8CCC(=O)NC8=O)nc7)CC6)C[C@H]5F)c4)c3C[C@@H]1C2(F)F` [Compound 94, (4aS,5aR)-N-(1-((3R,4R)-1-((1-(6-(((S)-2,6-dioxopiperidin-3-yl)carbamoyl)pyridin-3-yl)piperidin-4-yl)methyl)-3-fluoropiperidin-4-yl)-1H-pyrazol-4-yl)-5,5-difluoro-5a-methyl-1,4,4a,5,5a,6-hexahydrocyclopropa[f]indazole-3-carboxamide]: half-maximal degradation (DC50) was put at 3.4 nM and the Dmax worked out at 83%.
Consider `C[C@@]12Cc3[nH]nc(C(=O)Nc4cnn(C5CCN(CC6(F)CCN(c7ccc(C8CCC(=O)NC8=O)cc7)CC6)CC5)c4)c3C[C@@H]1C2(F)F` (stereo partly drawn) [Compound 97, (4aS,5aR)-N-(1-(1-((1-(4-(2,6-dioxopiperidin-3-yl)phenyl)-4-fluoropiperidin-4-yl)methyl)piperidin-4-yl)-1H-pyrazol-4-yl)-5,5-difluoro-5a-methyl-1,4,4a,5,5a,6-hexahydrocyclopropa[f]indazole-3-carboxamide], for which half-maximal degradation (DC50) was put at 2.6 nM and the maximal degradation (Dmax) was 88%.
